Reference: patent publication US11400079B2, “Antibacterial monobactams” (University of Notre Dame du Lac, priority 2017, dated 2022)
In brackets after ≈: the same amount, converted by molar mass. Counter-ions that a name gives are not always drawn. Like-named read-outs stand apart in the source and are kept apart here.

Legend:
A. baumannii ATCC 17961 = assay: MIC antibacterial assay (iron depleted media); type: cell-based; conditions: Acinetobacter baumannii, ATCC17961
Procedure: (§1) General Methods. All solvents and reagents were obtained from commercial sources and used without further purification unless otherwise stated. General methods of purification of compounds involved the use column chromatography with silica gel (230-400 mesh) purchased from Silicycle, Quebec City, Canada. The reactions were monitored by TLC on precoated Merck 60 F254 silica gel plates and visualized using UV light (254 nm).
(§2) Antibacterial assays were performed using iron depleted media as described previously (J. Med. Chem. 2017, 60, 4577).

[1] = tested on: A. baumannii ATCC BAA 1797; assay: MIC antibacterial assay (iron depleted media); type: cell-based; conditions: Acinetobacter baumannii, BAA1797
Procedure: as §1, §2

[2] = tested on: A. baumannii ATCC17978-PNT-165; assay: MIC antibacterial assay (iron depleted media); type: cell-based; conditions: Acinetobacter baumannii
Procedure: as §1, §2

B. dolosa AU0018 = assay: MIC antibacterial assay (iron depleted media); type: cell-based; conditions: Burkholderia dolosa
Procedure: as §1, §2

[3] = tested on: Citrobacter freuendii ATCC 29063; assay: MIC antibacterial assay (iron depleted media); type: cell-based; conditions: ATCC29063
Procedure: as §1, §2

E. coli DCO = assay: MIC antibacterial assay (iron depleted media); type: cell-based; conditions: Escherichia coli
Procedure: as §1, §2

[4] = tested on: Enterobacter aerogenes X816; assay: MIC antibacterial assay (iron depleted media); type: cell-based; conditions: Klebsiella aerogenes
Procedure: as §1, §2

P. aeruginosa 01 = assay: MIC antibacterial assay (iron depleted media); type: cell-based; conditions: Pseudomonas aeruginosa
Procedure: as §1, §2

P. aeruginosa ARC 3506 = assay: MIC antibacterial assay (iron depleted media); type: cell-based; conditions: Pseudomonas aeruginosa, ARC3506
Procedure: as §1, §2

P. aeruginosa ISR-14-003 = assay: MIC antibacterial assay (iron depleted media); type: cell-based; conditions: Pseudomonas aeruginosa, ISR14003
Procedure: as §1, §2

P. aeruginosa ISR-14-004 = assay: MIC antibacterial assay (iron depleted media); type: cell-based; conditions: Pseudomonas aeruginosa, ISR14004
Procedure: as §1, §2

P. aeruginosa KW799/wt = assay: MIC antibacterial assay (iron depleted media); type: cell-based; conditions: Pseudomonas aeruginosa
Procedure: as §1, §2

Proteus mirabilis X235 = assay: MIC antibacterial assay (iron depleted media); type: cell-based
Procedure: as §1, §2

S. aureus SG 511 = assay: MIC antibacterial assay (iron depleted media); type: cell-based; conditions: Staphylococcus aureus, SG511
Procedure: as §1, §2

[5] = tested on: Salmonella typhimurium ATCC13311; assay: MIC antibacterial assay (iron depleted media); type: cell-based; conditions: Salmonella enterica
Procedure: as §1, §2

A. baumannii ARC 5079 = assay: MIC antibacterial assay (iron depleted media); type: cell-based, Acinetobacter baumannii; conditions: Acinetobacter baumannii, ARC5079
Procedure: as §1, §2

[6] = tested on: A. baumannii ATCC 17978-PNT-320; assay: MIC antibacterial assay (iron depleted media); type: cell-based, Acinetobacter baumannii; conditions: Acinetobacter baumannii, ATCC17978
Procedure: as §1, §2

[7] = tested on: A. baumannii ATCC BAA 1793; assay: MIC antibacterial assay (iron depleted media); type: cell-based, Acinetobacter baumannii; conditions: Acinetobacter baumannii, BAA1793
Procedure: as §1, §2

A.baumannii ISR14-005 = assay: MIC antibacterial assay (iron depleted media); type: cell-based, Acinetobacter baumannii; conditions: Acinetobacter baumannii, ISR14005
Procedure: as §1, §2

[8] = tested on: strong β-lactamase producing strains of P. aeruginosa (ARC 3502 and ARC 3506); assay: Antibacterial activity, alone and in combination with tazobactam; type: cell-based; conditions: co-administration with tazobactam
Procedure: as §1, §2

Gram-negative bacteria = assay: Antibacterial activity against tested Gram-negative strains (summary in words); type: cell-based; conditions: tested strains of Gram-negative bacteria
Procedure: as §1, §2

P. aeruginosa ARC 3502 = assay: MIC antibacterial assay (iron depleted media); type: cell-based; conditions: Pseudomonas aeruginosa
Procedure: as §1, §2

[9] = tested on: A. baumannii ATCC BAA 1800; assay: MIC antibacterial assay (iron depleted media); type: cell-based, Acinetobacter baumannii; conditions: Acinetobacter baumannii, BAA1800, MH2 broth with 160 μM bipyridyl added
Procedure: as §1, §2

[10] = tested on: β-lactamase producing strains of A. baumannii; assay: Antibacterial activity in combination with tazobactam; type: cell-based, Acinetobacter baumannii; conditions: combinations with tazobactam
Procedure: as §1, §2

[11] = B. dolosa AU0018, MH2 broth with 160 μM bipyridyl added, read-out: MIC
[12] = Citrobacter freuendii ATCC 29063, MH2 broth with 160 μM bipyridyl added, read-out: MIC
[13] = E. coli DCO, MH2 broth with 160 μM bipyridyl added, read-out: MIC
[14] = Enterobacter aerogenes X816, MH2 broth with 160 μM bipyridyl added, read-out: MIC
[15] = P. aeruginosa 01, MH2 broth with 160 μM bipyridyl added, read-out: MIC
[16] = P. aeruginosa ISR-14-003 (clinical isolate), compound alone, MH2 broth with 160 μM bipyridyl added, read-out: MIC
[17] = P. aeruginosa ISR-14-003 (clinical isolate), in combination with tazobactam, read-out: MIC (+tazo)
[18] = P. aeruginosa ISR-14-004 (clinical isolate), compound alone, MH2 broth with 160 μM bipyridyl added, read-out: MIC
[19] = P. aeruginosa ISR-14-004 (clinical isolate), in combination with tazobactam, read-out: MIC (+tazo)
[20] = P. aeruginosa KW799/wt, MH2 broth with 160 μM bipyridyl added, read-out: MIC
[21] = Proteus mirabilis X235, MH2 broth with 160 μM bipyridyl added, read-out: MIC
[22] = S. aureus SG 511, MH2 broth with 160 μM bipyridyl added, read-out: MIC
[23] = Salmonella typhimurium ATCC13311, MH2 broth with 160 μM bipyridyl added, read-out: MIC
[24] = A. baumannii ISR14-005 (clinical isolate), compound alone, MH2 broth with 160 μM bipyridyl added, read-out: MIC
[25] = A. baumannii ISR14-005 (clinical isolate), in combination with tazobactam, read-out: MIC (+tazo)

Molecule `CC(C)(O/N=C(\C(=O)NC1C(=O)N(S(=O)(=O)O)[C@H]1CSCCN)c1cnc(N)s1)C(=O)O` (mixture of isomers) [Compound 39, (E)-3-(2-(2-aminothiazol-5-yl)-2-(((2-carboxypropan-2-yl)oxy)imino)acetamido)-2-(((2-ammonioethyl)thio)methyl)-4-oxoazetidine-1-sulfonate, potassium salt] has an MIC (A. baumannii ATCC 17961) greater than 50 µM, an MIC [1] of 50 µM and an MIC [2] of 50 µM. The MIC (B. dolosa AU0018; AU0018) was greater than 50 µM, the MIC ([3]; Citrobacter) was 3 µM and the MIC (E. coli DCO) was 6 µM. It also gave an MIC ([4]; X816) of 9.4 µM, an MIC (P. aeruginosa 01; 01) greater than 50 µM and an MIC (P. aeruginosa ARC 3506) greater than 50 µM. For the same molecule, the MIC (P. aeruginosa ISR-14-003) was greater than 50 µM, the MIC (P. aeruginosa ISR-14-004) was greater than 50 µM and the MIC (P. aeruginosa KW799/wt; KW799/WT) was greater than 50 µM. It also gave an MIC (Proteus mirabilis X235; Proteus mirabilis, X235) of 3 µM, an MIC (S. aureus SG 511) greater than 50 µM and an MIC [5] of 4.5 µM. For the same molecule, the MIC (A. baumannii ARC 5079) was greater than 50 µM, the MIC [6] was greater than 50 µM and the MIC [7] was 50 µM. The MIC (A.baumannii ISR14-005) was greater than 50 µM, the “effect of combination with tazobactam on activity (in words)” value (“effect of combination with tazobactam” for short) [8] was “no improvement” and the “antibacterial activity (in words)” value (Gram-negative bacteria) was “generally improved activity”.
`CC(C)(O/N=C(\C(=O)NC1C(=O)N(S(=O)(=O)O)C1CSCCNC(=O)CN(CCCCNC(=O)c1cccc(O)c1O)C(=O)c1cccc(O)c1O)c1cnc(N)s1)C(=O)O` (racemic) [Compound 42, (E)-2-(((1-(2-Aminothiazol-5-yl)-2-((2-(8-(2,3-dihydroxybenzoyl)-14-(2,3-dihydroxyphenyl)-6,14-dioxo-2-thia-5,8,13-triazatetradecyl)-4-oxo-1-sulfoazetidin-3-yl)amino)-2-oxoethylidene)amino)oxy)-2-methylpropanoic acid] showed an MIC (A. baumannii ATCC 17961; A. baumannii ATCC 17961, MH2 broth with 160 μM bipyridyl added, read-out: MIC) of 0.2 µM (≈ 0.182 µg/mL), an MIC ([1]; A. baumannii ATCC BAA 1797, MH2 broth with 160 μM bipyridyl added, read-out: MIC) of 0.4 µM (≈ 0.364 µg/mL) and an MIC [2] of 0.4 µM (≈ 0.364 µg/mL). The MIC (B. dolosa AU0018; [11]) was greater than 50 µM, the MIC [3, 12] was 0.05 µM (≈ 0.0455 µg/mL) and the MIC (E. coli DCO; [13]) was less than 0.025 µM. The MIC [4, 14] was 0.075 µM (≈ 0.0683 µg/mL), the MIC (P. aeruginosa 01; [15]) was 0.4 µM (≈ 0.364 µg/mL) and the MIC (P. aeruginosa ARC 3502; ARC3502, compound alone, MH2 broth with 160 μM bipyridyl added, read-out: MIC) was greater than 50 µM. The MIC (P. aeruginosa ARC 3502; ARC3502, in combination with tazobactam, plus some growth at 50, clear between 1.6-50, read-out: MIC (+tazo)) was 1.6 µM, the MIC (P. aeruginosa ARC 3506; P. aeruginosa ARC 3506, compound alone, MH2 broth with 160 μM bipyridyl added, read-out: MIC) was greater than 50 µM and the MIC (P. aeruginosa ISR-14-003; [16]) was 1.6 µM (≈ 1.46 µg/mL). It also gave an MIC (P. aeruginosa ISR-14-003; [17]) of 1.6 µM, an MIC (P. aeruginosa ISR-14-004; [18]) of 6 µM (≈ 5.47 µg/mL) and an MIC (P. aeruginosa ISR-14-004; [19]) of 3 µM. For the same molecule, the MIC (P. aeruginosa KW799/wt; [20]) was 0.4 µM (≈ 0.364 µg/mL), the MIC (Proteus mirabilis X235; [21]) was less than 0.025 µM and the MIC (S. aureus SG 511; [22]) was greater than 50 µM. For the same molecule, the MIC [5, 23] was 0.025 µM (≈ 0.0228 µg/mL), the MIC [6] was 0.4 µM (≈ 0.364 µg/mL) and the MIC [9] was 0.1 to 0.4 µM (≈ 0.0911 to 0.364 µg/mL). The MIC (A.baumannii ISR14-005; [24]) was greater than 50 µM, the MIC (A.baumannii ISR14-005; [25]) was 25 µM and the “effect of combination with tazobactam” value [8] was “most improved activity”. The “antibacterial activity (in words)” value (Gram-negative bacteria) was “remarkably potent” and the “effect of combination with tazobactam” value [10] was “most enhancement of activity”.
`C[C@H]1[C@H](NC(=O)/C(=N\OC(C)(C)C(=O)O)c2csc(N)n2)C(=O)N1S(=O)(=O)O` [Aztreonam, aztreonam, reference compound] showed an MIC [2] of 12.5 µM (≈ 5.44 µg/mL), an MIC (B. dolosa AU0018; [11]) greater than 50 µM and an MIC [3, 12] of 0.1 µM (≈ 0.0435 µg/mL). For the same molecule, the MIC (E. coli DCO; [13]) was 0.1 µM (≈ 0.0435 µg/mL), the MIC [4, 14] was 0.2 µM (≈ 0.0871 µg/mL) and the MIC (P. aeruginosa 01; [15]) was 3 µM (≈ 1.31 µg/mL). It also gave an MIC (P. aeruginosa ISR-14-003; [16]) of 6 µM (≈ 2.61 µg/mL), an MIC (P. aeruginosa ISR-14-003; [17]) of 3 µM and an MIC (P. aeruginosa ISR-14-004; [18]) of 50 µM (≈ 21.8 µg/mL). It also gave an MIC (P. aeruginosa ISR-14-004; [19]) of 0.4 µM, an MIC (P. aeruginosa KW799/wt; [20]) of 1.6 µM (≈ 0.697 µg/mL) and an MIC (Proteus mirabilis X235; [21]) of 0.05 µM (≈ 0.0218 µg/mL). It also gave an MIC (S. aureus SG 511; [22]) greater than 50 µM, an MIC [5, 23] of 0.1 µM (≈ 0.0435 µg/mL) and an MIC (A. baumannii ARC 5079; A. baumannii ARC 5079, compound alone, MH2 broth with 160 μM bipyridyl added, read-out: MIC) of 25 to 50 µM (≈ 10.9 to 21.8 µg/mL). It also gave an MIC [6] of 50 µM (≈ 21.8 µg/mL), an MIC (A.baumannii ISR14-005; [24]) greater than 50 µM and an MIC (A.baumannii ISR14-005; [25]) of 50 µM. For the same molecule, the “effect of combination with tazobactam” value [8] was “minimal effects”.
